Reference: patent US9271981B2, “Pyrrolo[2,3-D]pyrimidine compounds” (Zoetis Services LLC, priority 2008, dated 2016)

What was measured:
flea allergic dogs = test: Reducing Flea-associated Pruritus and Dermatitis Assay; assay type: in vivo; settings: for pruritus as compared to placebo (seconds of pruritus per 4 hour recording): 10% level of significance
Description: Twenty eight male and female dogs of mixed breeds ranging in weight from 5-35 kg and greater than one year of age were infested with approximately 100 unfed adult cat fleas (Ctenocephalides felis) 14 days prior to the start of dosing and reinfested with 30 fleas per dog every 4 days throughout the study. Seven days before dosing, twenty four dogs were randomized into three different treatment groups, placebo, 0.5 mg/kg or 0.25 mg/kg of the compound of Example 1b, based on visual analog scale (VAS) scores for skin lesions. Treatments were given orally twice a day for 28 days, and pruritic behavior as well as erythema and skin lesions were was assessed during the study. Pruritic behavior was recorded by placing dogs into pens with video recording capability, and recording their activity over 4 hours. Pruritic activity was quantitated by determining how many seconds the dogs spent scratching. Skin lesions were recorded by image capture of abdominal, inguinal region and the severity ranked according to a visual analog scale (VAS).
Video captured elapsed time of pruritic behavior was analyzed using a mixed linear model for repeated measures. The model included fixed effects of treatment and day of study and the interaction of treatment and day of study. Random effects included block, the interaction of block and treatment and error. Baseline data for pruritic behavior (day-1) were used as covariate in the analysis of pruritic behavior. Least squares means were used as estimates of treatment means. Standard errors of least squares means were estimated and 90% confidence intervals were constructed. Geometric means were computed from the least squares means for log-transformed data. A priori contrasts were used to assess treatment. Treatment differences were assessed at the 10% level of significance (P≦0.10).

[1] = tested on: T-cell proliferation in canine whole blood; test: Canine in vitro T-cell Proliferation Assay; assay type: cell-based; settings: Canis lupus familiaris, ConA + canine IL-2, tritiated thymidine
Description: Methods: Canine whole blood was collected in sodium heparin tubes from 29 beagle dogs and 23 mixed breed dogs. Whole blood (20 μL) was plated in 96-well plates (Costar 3598) with 180 μL of medium (RPMI 1640, Gibco #21870-076, with 1% heat inactivated fetal bovine serum, Gibco #10082-39, 292 μg/ml L-glutamine, Gibco #250030-081, 100 u/ml penicillin and 100 μg streptomycin per ml, Gibco #15140-122) containing vehicle control or test compound (0.001 to 10 μM), concanavalin A (ConA; 1 μg/ml, Sigma C5275), and canine interleukin-2 (IL-2; 50 ng/ml, R&D Systems 1815-CL/CF). Wells containing whole blood, medium with vehicle control and no ConA or IL-2 were used as background controls. Plates were incubated at 37° C. for 48 hours. Tritiated thymidine, 0.4 μCi/well (Perkin Elmer, Net027A-005MC), was added for 20 additional hours. Plates were frozen and then thawed, washed and filtered using a Brandel MLR-96 cell harvester and prewet filter mats (Wallac 1205-401, Perkin Elmer). Filters were dried at 60° C. for one hour (Precision 16EG convection oven) and placed into filter sample bags (Wallac 1205-411, Perkin Elmer) with 10 mL of scintillant (Wallac 1205-440, Perkin Elmer). Sealed filters were counted on a LKB Wallac 1205 Betaplate liquid scintillation counter. Data were collected via Gterm Betaplate program v1.1 (Wallac copyright 1989-1990) and transformed into percent inhibition, calculated using the following formula: […]

| SMILES | pruritus as compared to placebo (seconds of pruritus per 4 hour recording) (flea allergic dogs; 0.25 mg/kg orally twice a day, days 1, 4 and 12) | Lesions and erythema (VAS) (flea allergic dogs; 0.5 mg/kg orally twice a day for 28 days, flea allergic dogs) | pruritus as compared to placebo (seconds of pruritus per 4 hour recording) (flea allergic dogs; 0.5 mg/kg orally twice a day, days 1 and 20) | IC50 ([1]; whole blood from beagles) | IC50 ([1]; whole blood from mixed breed dogs) |
| --- | --- | --- | --- | --- | --- |
| CNS(=O)(=O)C[C@H]1CC[C@H](N(C)c2ncnc3[nH]ccc23)CC1.O=C(O)/C=C\C(=O)O [Example 1b, N-methyl-1-{trans-4-[methyl(7H-pyrrolo[2,3-d]pyrimidin-4-yl)amino]cyclohexyl}methanesulfonamide maleic acid salt] | Significant reductions | significantly reduced | Significant reductions | – | – |
| CN(c1ncnc2[nH]ccc12)[C@H]1CC[C@H](CS(=O)(=O)NC2CCC2)CC1 [Example 2, N-cyclobutyl-1-{trans-4-[methyl(7H-pyrrolo[2,3-d]pyrimidin-4-yl)amino]cyclohexyl}methanesulfonamide] | – | – | – | 410 nM | – |
| CNS(=O)(=O)C[C@H]1CC[C@H](N(C)c2ncnc3[nH]ccc23)CC1 [Example 1a, N-methyl-1-{trans-4-[methyl(7H-pyrrolo[2,3-d]pyrimidin-4-yl)amino]cyclohexyl}methanesulfonamide] | – | – | – | 66.3 nM | 138 nM |
